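Method: 48-hour compound exposure of cells in 96-well plates, five concentrations, linear interpolation of endpoints. TGI denotes the concentration required for complete inhibition of growth.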
Columns and labels:
Test in all cases: NCI anticancer screen, dose series, 48 h
SK-OV-3 ovarian = test system: SK-OV-3 ovarian
HCT-116 colon = test system: HCT-116 colon
DU-145 prostate = test system: DU-145 prostate
LOX IMVI melanoma = test system: LOX IMVI melanoma
CAKI-1 renal = test system: CAKI-1 renal
786-0 renal = test system: 786-0 renal
T-47D breast = test system: T-47D breast
SR leukemia = test system: SR leukemia
M14 melanoma = test system: M14 melanoma
MALME-3M melanoma = test system: MALME-3M melanoma
A498 renal = test system: A498 renal
SNB-75 CNS = test system: SNB-75 CNS
EKVX NSCLC = test system: EKVX NSCLC
HCC-2998 colon = test system: HCC-2998 colon
U251 CNS = test system: U251 CNS
K-562 leukemia = test system: K-562 leukemia
MDA-N = test system: MDA-N
OVCAR-5 ovarian = test system: OVCAR-5 ovarian
SF-295 CNS = test system: SF-295 CNS
HOP-92 NSCLC = test system: HOP-92 NSCLC
OVCAR-4 ovarian = test system: OVCAR-4 ovarian
ACHN renal = test system: ACHN renal
HT29 colon = test system: HT29 colon
SK-MEL-5 melanoma = test system: SK-MEL-5 melanoma
RPMI-8226 leukemia = test system: RPMI-8226 leukemia
KM12 colon = test system: KM12 colon
OVCAR-3 ovarian = test system: OVCAR-3 ovarian
SK-MEL-28 melanoma = test system: SK-MEL-28 melanoma
MCF7 breast = test system: MCF7 breast
COLO 205 colon = test system: COLO 205 colon
NCI-H226 lung = test system: NCI-H226 lung
OVCAR-8 ovarian = test system: OVCAR-8 ovarian
UACC-257 melanoma = test system: UACC-257 melanoma
SF-539 CNS = test system: SF-539 CNS
HOP-62 NSCLC = test system: HOP-62 NSCLC
RXF 393 renal = test system: RXF 393 renal
NCI-H23 lung = test system: NCI-H23 lung
HS 578T breast = test system: HS 578T breast
PC-3 prostate = test system: PC-3 prostate
MOLT-4 leukemia = test system: MOLT-4 leukemia
SNB-19 CNS = test system: SNB-19 CNS
IGROV1 ovarian = test system: IGROV1 ovarian
CCRF-CEM leukemia = test system: CCRF-CEM leukemia
NCI-H522 lung = test system: NCI-H522 lung
BT-549 breast = test system: BT-549 breast
TK-10 renal = test system: TK-10 renal
A549 NSCLC = test system: A549 NSCLC
SF-268 CNS = test system: SF-268 CNS
UO-31 renal = test system: UO-31 renal
SK-MEL-2 melanoma = test system: SK-MEL-2 melanoma
HL-60(TB) leukemia = test system: HL-60(TB) leukemia
SW-620 colon = test system: SW-620 colon
NCI-H460 lung = test system: NCI-H460 lung
SN12C renal = test system: SN12C renal
HCT-15 colon = test system: HCT-15 colon
UACC-62 melanoma = test system: UACC-62 melanoma
NCI/ADR-RES ovarian = test system: NCI/ADR-RES ovarian
MDA-MB-435 = test system: MDA-MB-435
MDA-MB-231 breast = test system: MDA-MB-231 breast

CCCCCCCCCCC[N+]1(Cc2ccccc2)CC2CCN(Cc3ccccc3)CC2C1 (configuration not stated)
TGI (SK-OV-3 ovarian): 3130 nM | TGI (HCT-116 colon): 1450 nM | TGI (DU-145 prostate): 1510 nM | TGI (LOX IMVI melanoma): 1600 nM | TGI (CAKI-1 renal): 2740 nM | TGI (786-0 renal): 2210 nM | TGI (T-47D breast): 1370 nM | TGI (SR leukemia): 1070 nM | TGI (M14 melanoma): 1480 nM | TGI (MALME-3M melanoma): 1260 nM | TGI (A498 renal): 2880 nM | TGI (SNB-75 CNS): 2450 nM | TGI (EKVX NSCLC): 1370 nM | TGI (HCC-2998 colon): 2000 nM | TGI (U251 CNS): 1110 nM | TGI (K-562 leukemia): 827 nM | TGI (MDA-N): 1250 nM | TGI (OVCAR-5 ovarian): 2900 nM | TGI (SF-295 CNS): 2280 nM | TGI (HOP-92 NSCLC): 1620 nM | TGI (OVCAR-4 ovarian): 2020 nM | TGI (ACHN renal): 2430 nM | TGI (HT29 colon): 1710 nM | TGI (SK-MEL-5 melanoma): 357 nM | TGI (RPMI-8226 leukemia): 378 nM | TGI (KM12 colon): 902 nM | TGI (OVCAR-3 ovarian): 1280 nM | TGI (SK-MEL-28 melanoma): 1950 nM | TGI (MCF7 breast): 1620 nM | TGI (COLO 205 colon): 2180 nM | TGI (NCI-H226 lung): 1980 nM | TGI (OVCAR-8 ovarian): 1500 nM | TGI (UACC-257 melanoma): 1140 nM | TGI (SF-539 CNS): 2450 nM | TGI (HOP-62 NSCLC): 2140 nM | TGI (RXF 393 renal): 1950 nM | TGI (NCI-H23 lung): 1030 nM | TGI (HS 578T breast): 1570 nM | TGI (PC-3 prostate): 1180 nM | TGI (MOLT-4 leukemia): 1250 nM | TGI (SNB-19 CNS): 1490 nM | TGI (IGROV1 ovarian): 1780 nM | TGI (CCRF-CEM leukemia): 1140 nM | TGI (NCI-H522 lung): 1290 nM | TGI (BT-549 breast): 1400 nM | TGI (TK-10 renal): 2570 nM | TGI (A549 NSCLC): 2430 nM | TGI (SF-268 CNS): 2130 nM | TGI (UO-31 renal): 2560 nM | TGI (SK-MEL-2 melanoma): 724 nM | TGI (HL-60(TB) leukemia): 277 nM | TGI (SW-620 colon): 1580 nM | TGI (NCI-H460 lung): 2580 nM | TGI (SN12C renal): 1500 nM | TGI (HCT-15 colon): 2960 nM

NC(=O)CC[C@H]1C(=O)N=C(N)N1C(=O)OCc1ccccc1
TGI (HCT-116 colon): > 100000 nM | TGI (DU-145 prostate): > 100000 nM | TGI (LOX IMVI melanoma): > 100000 nM | TGI (CAKI-1 renal): > 100000 nM | TGI (786-0 renal): > 100000 nM | TGI (SR leukemia): > 100000 nM | TGI (UACC-62 melanoma): > 100000 nM | TGI (MALME-3M melanoma): > 100000 nM | TGI (A498 renal): > 100000 nM | TGI (SNB-75 CNS): > 100000 nM | TGI (EKVX NSCLC): > 100000 nM | TGI (HCC-2998 colon): > 100000 nM | TGI (U251 CNS): > 100000 nM | TGI (K-562 leukemia): > 100000 nM | TGI (MDA-N): > 100000 nM | TGI (OVCAR-5 ovarian): > 100000 nM | TGI (SF-295 CNS): > 100000 nM | TGI (OVCAR-4 ovarian): > 100000 nM | TGI (ACHN renal): > 100000 nM | TGI (HT29 colon): > 100000 nM | TGI (SK-MEL-5 melanoma): > 100000 nM | TGI (RPMI-8226 leukemia): > 100000 nM | TGI (KM12 colon): > 100000 nM | TGI (OVCAR-3 ovarian): > 100000 nM | TGI (SK-MEL-28 melanoma): > 100000 nM | TGI (MCF7 breast): > 100000 nM | TGI (COLO 205 colon): > 100000 nM | TGI (NCI-H226 lung): > 100000 nM | TGI (OVCAR-8 ovarian): > 100000 nM | TGI (NCI/ADR-RES ovarian): > 100000 nM | TGI (UACC-257 melanoma): > 100000 nM | TGI (HOP-62 NSCLC): > 100000 nM | TGI (RXF 393 renal): > 100000 nM | TGI (NCI-H23 lung): > 100000 nM | TGI (HS 578T breast): > 100000 nM | TGI (PC-3 prostate): > 100000 nM | TGI (MOLT-4 leukemia): > 100000 nM | TGI (SNB-19 CNS): > 100000 nM | TGI (IGROV1 ovarian): > 100000 nM | TGI (MDA-MB-435): > 100000 nM | TGI (MDA-MB-231 breast): > 100000 nM | TGI (NCI-H522 lung): > 100000 nM | TGI (BT-549 breast): > 100000 nM | TGI (TK-10 renal): > 100000 nM | TGI (SF-268 CNS): > 100000 nM | TGI (UO-31 renal): > 100000 nM | TGI (SK-MEL-2 melanoma): > 100000 nM | TGI (HL-60(TB) leukemia): > 100000 nM | TGI (SW-620 colon): > 100000 nM | TGI (NCI-H460 lung): > 100000 nM | TGI (SN12C renal): > 100000 nM | TGI (HCT-15 colon): > 100000 nM
